Reference: patent US6124290A, “Polycyclic phthalazine compounds and their use” (Gruenenthal GmbH, priority 1996, dated 2000)
Values after ≈ are worked out from the molar mass of the structure shown. Read-outs that look alike come from different tables or passages of the source. Values belong to the molecule of their own block, whether it stands above or below them.

Key:
[1] = system: Enterococcus faecium 64/3; assay: MIC, micro-broth dilution test according to DIN 58 940 (Part 8); type: cell-based; conditions: for MIC: Enterococcus faecium
Description: (§1) The minimum inhibiting concentration (MIC) of the compounds was tested, in a micro-broth dilution test according to DIN 58 940 (Part 8), against the following bacterial strains: Staphylococcus aureus, strains 8325-4 (a sensitive Staphylococcus aureus strain which is representative of the species), NCTC 6571 (a sensitive international control strain), 108/83 (an "old" MRSA without quinolone-resistance), 134/94 (a "new" MRSA, with quinolone-resistance), Staphylococcus epidermidis CCM 2124 (a sensitive control strain), Enterococcus faecium 70/90 (a vancomycin-resistant strain) and 64/3 (a sensitive strain).

[2] = system: Staphylococcus epidermidis CCM 2124; assay: as above; type: cell-based; conditions: for MIC: Staphylococcus epidermidis
Description: as §1, with “strain). The known substances vancomycin, teicoplanin and ciprofloxacin were used for comparison in the tests, even though they are structurally different.” for “strain).”

[3] = system: Staphylococcus aureus 8325-4; assay: as above; type: cell-based
Description: as §1, with “strain). The known substances vancomycin, teicoplanin and ciprofloxacin were used for comparison in the tests, even though they are structurally different.” for “strain).”

[4] = system: Staphylococcus aureus 108/83; assay: as above; type: cell-based; conditions: for MIC: Staphylococcus aureus, read-out: MIC, Staphylococcus aureus 108/83
Description: as §1, with “strain). The known substances vancomycin, teicoplanin and ciprofloxacin were used for comparison in the tests, even though they are structurally different.” for “strain).”

[5] = system: Staphylococcus aureus 134/94; assay: as above; type: cell-based; conditions: for MIC: Staphylococcus aureus, read-out: MIC, Staphylococcus aureus 134/94
Description: as §1, with “strain). The known substances vancomycin, teicoplanin and ciprofloxacin were used for comparison in the tests, even though they are structurally different.” for “strain).”

[6] = system: Enterococcus faecium 70/90; assay: as above; type: cell-based; conditions: for MIC: Enterococcus faecium
Description: as §1, with “strain). The known substances vancomycin, teicoplanin and ciprofloxacin were used for comparison in the tests, even though they are structurally different.” for “strain).”

[7] = system: Staphylococcus aureus NCTC 6571; assay: as above; type: cell-based; conditions: NCTC6571, sensitive international control strain
Description: as §1, with “strain). The known substances vancomycin, teicoplanin and ciprofloxacin were used for comparison in the tests, even though they are structurally different.” for “strain).”

[8] = background section; cited from earlier work
[9] = CCM2124, read-out: MIC, Staphylococcus epidermidis CCM 2124
[10] = Staphylococcus aureus, 83254, read-out: MIC, Staphylococcus aureus 8325-4
[11] = "old" MRSA, without quinolone-resistance
[12] = "new" MRSA, with quinolone-resistance
[13] = 83254, sensitive Staphylococcus aureus strain, representative of the species, read-out: MIC, Staphylococcus aureus 8325-4
[14] = 64/3, sensitive strain, read-out: MIC, Enterococcus faecium 64/3
[15] = CCM2124, sensitive control strain, read-out: MIC, Staphylococcus epidermidis CCM 2124
[16] = 70/90, vancomycin-resistant strain, read-out: MIC, Enterococcus faecium 70/90

Molecule: CN[C@H](CC(C)C)C(=O)N[C@H]1C(=O)N[C@@H](CC(N)=O)C(=O)N[C@H]2C(=O)N[C@H]3C(=O)N[C@H](C(=O)N[C@H](C(=O)O)c4cc(O)cc(O)c4-c4cc3ccc4O)[C@H](O)c3ccc(c(Cl)c3)Oc3cc2cc(c3O[C@@H]2O[C@H](CO)[C@@H](O)[C@H](O)[C@H]2O[C@H]2C[C@](C)(N)[C@H](O)[C@H](C)O2)Oc2ccc(cc2Cl)[C@H]1O [vancomycin]
MIC ([1]; 64/3, read-out: MIC, Enterococcus faecium 64/3): < 250 mg/L
MIC [2, 9]: 500 mg/L (≈ 345 µM)
MIC [3, 10]: 500 mg/L (≈ 345 µM)
MIC ([4]; MRSA): 500 mg/L (≈ 345 µM)
MIC ([5]; MRSA): 500 mg/L (≈ 345 µM)

Molecule: O=C(O)c1cn(C2CC2)c2cc(N3CCNCC3)c(F)cc2c1=O [ciprofloxacin]
MIC [2, 9]: 250 mg/L (≈ 754 µM)
MIC ([6]; 70/90, read-out: MIC, Enterococcus faecium 70/90): 1000 mg/L (≈ 3020 µM)
MIC [3, 10]: 250 mg/L (≈ 754 µM)
MIC ([4]; MRSA): 250 mg/L (≈ 754 µM)
MIC ([5]; MRSA): 16000 mg/L (≈ 48300 µM)

Molecule: teicoplanin
MIC, Enterococcus faecium 64/3 ([1]; sensitive strain): < 250 mg/L
MIC, Staphylococcus epidermidis CCM 2124 ([2]; sensitive control strain): 500 mg/L
MIC, Enterococcus faecium 70/90 ([6]; vancomycin-resistant strain): 256000 mg/L
MIC, Staphylococcus aureus 8325-4 ([3]; sensitive Staphylococcus aureus strain, representative of the species): 500 mg/L
MIC, Staphylococcus aureus 108/83 [4, 11]: 500 mg/L
MIC, Staphylococcus aureus 134/94 [5, 12]: 500 mg/L

MIC [3, 13]: 63 mg/L (≈ 110 µM)
MIC [4, 11]: 32 mg/L (≈ 55.9 µM)
MIC [5, 12]: 16 mg/L (≈ 27.9 µM)
Molecule: CCC(C(=O)O)n1ncc2cc3c(c(O)c2c1=O)-c1c(O)c2c(c(OC)c1CC3)C(=O)c1c(cc(O)c(C)c1O)C2=O (racemic) [Substance 4]

MIC [1, 14]: 500 mg/L (≈ 918 µM)
MIC [2, 15]: < 125 mg/L
MIC [6, 16]: 2000 mg/L (≈ 3670 µM)
MIC [3, 13]: 63 mg/L (≈ 116 µM)
MIC [7]: < 125 mg/L
MIC [4, 11]: 63 mg/L (≈ 116 µM)
MIC [5, 12]: 250 mg/L (≈ 459 µM)
Molecule: COc1c2c(c(O)c3c1C(=O)c1c(cc(O)c(C)c1O)C3=O)-c1c(cc3cnn(CC(=O)O)c(=O)c3c1O)CC2 [Substance 3, 10,12, 15,16-tetrahydroxy-8-methoxy-2-carboxynmethyl-11-methyl-1,9,14-trioxo-1,2,6,7,9,14-hexahydro-naphthaceno-[1,2-g]-phthalazine]

MIC [1, 14]: 500 mg/L (≈ 824 µM)
MIC [2, 15]: < 125 mg/L
MIC [6, 16]: 500 mg/L (≈ 824 µM)
MIC [3, 13]: 500 mg/L (≈ 824 µM)
MIC [7]: < 125 mg/L
MIC [4, 11]: 250 mg/L (≈ 412 µM)
MIC [5, 12]: 500 mg/L (≈ 824 µM)
Molecule: COc1c2c(c(O)c3c1C(=O)c1c(cc(O)c(C)c1O)C3=O)-c1c(cc3cnn(-c4ccc(C(=O)O)cc4)c(=O)c3c1O)CC2 [Substance 1]

Molecule: COc1c2c(c(O)c3c1C(=O)c1c(cc(O)c(C)c1O)C3=O)-c1c(cc3c(c1O)C(=O)OC3O)CC2 (stereo not shown) [Madurahydroxylactone, 3,9,11,14,15-pentahydroxy-10-methyl-7-methoxy-1,8,13-trioxo-1,3,5,6,8,13-hexahydro-naphthaceno-[1,2-f]-benzoisofurane]
biological efficacy [8]: unsatisfactory biological efficacy
